Experimental data from ChEMBL document CHEMBL4814022, “Enantiomeric 4'-truncated 6'-fluoro-3-deazaneplanocin and its 3-bromo derivative: Synthesis and antiviral properties, including Ebola and Marburg” (Bioorg Med Chem Lett, 2021).
pEC50: −log10 of the molar value. Activity calls are given as the source filed them. The calls are words filed in the database; no cut-off is given here.

Tests used:
[1] = Selectivity index, ratio of EC50 for antiviral activity against Measles virus infected in African green monkey Vero cells to CC50 for African green monkey Vero cells; type: toxicity; details: read-out: Ratio CC50/EC50
Measles morbillivirus [2] = experiment: Antiviral activity against Measles virus infected in African green monkey Vero cells by neutral red assay; type: functional, organism-based
dengue virus type 2 = experiment: Antiviral activity against Dengue virus 2 infected in African green monkey Vero 76 cells; type: functional, organism-based
Pichinde virus = experiment: Antiviral activity against Pichinde virus infected in African green monkey Vero cells; type: functional, organism-based
[3] = Selectivity index, ratio of EC50 for antiviral activity against Measles virus infected in African green monkey Vero cells by visible analysis to CC50 for African green monkey Vero cells; type: toxicity; details: read-out: Ratio CC50/EC50
[4] = Cytotoxicity against African green monkey Vero cells; type: cell-based; details: chlorocebus sabaeus
Yellow fever virus = experiment: Antiviral activity against Yellow fever virus infected in African green monkey Vero 76 cells; type: functional, organism-based
[5] = Selectivity index, ratio of EC50 for antiviral activity against Norovirus infected in human HG23 cells by visible analysis to CC50 for human HG23 cells; type: toxicity, cell-based
Measles morbillivirus [6] = experiment: Antiviral activity against Measles virus infected in African green monkey Vero cells by visible analysis; type: functional, organism-based
[7] = Cytotoxicity against human HG23 cells; type: cell-based
Enterovirus A71 = experiment: Antiviral activity against Human enterovirus 71 infected in African green monkey Vero 76 cells; type: functional, organism-based
Punta Toro virus = experiment: Antiviral activity against Punta Toro virus infected in African green monkey Vero 76 cells; type: functional, organism-based
[8] = system: Venezuelan equine encephalitis virus; experiment: Antiviral activity against Venezuelan equine encephalitis virus infected in African green monkey Vero 76 cells; type: functional, organism-based
Norovirus = experiment: Antiviral activity against Norovirus infected in human HG23 cells; type: functional, organism-based
Zaire ebolavirus = experiment: Antiviral activity against Zaire ebola virus infected in African green monkey Vero cells; type: functional, organism-based
Chikungunya virus = experiment: Antiviral activity against Chikungunya virus infected in African green monkey Vero 76 cells; type: functional, organism-based
Influenza A virus = experiment: Antiviral activity against Influenza A virus (H1N1) infected in dog MDCK cells; type: functional, organism-based
Hepatitis B virus = experiment: Antiviral activity against Hepatitis B virus infected in human HepG2.2.15 cells; type: functional, organism-based
Junin virus = experiment: Antiviral activity against Junin virus infected in African green monkey Vero cells; type: functional, organism-based; details: Mammarenavirus juninense
[9] = Selectivity index, ratio of CC50 for African green monkey Vero cells to EC50 for antiviral activity against Ebola virus infected in African green monkey Vero cells; type: toxicity; details: read-out: Ratio CC50/EC50
Rift Valley fever virus = experiment: Antiviral activity against Rift Valley fever virus infected in African green monkey Vero 76 cells; type: functional, organism-based
Tacaribe virus = experiment: Antiviral activity against Tacaribe virus infected in African green monkey Vero cells; type: functional, organism-based; details: Mammarenavirus tacaribeense
Murine norovirus = experiment: Antiviral activity against Murine norovirus infected in mouse RAW264.7 cells; type: functional, organism-based
Marburgvirus = experiment: Antiviral activity against Marburgvirus Angola infected in African green monkey Vero cells; type: functional, organism-based; details: Orthomarburgvirus
[10] = Selectivity index, ratio of EC50 for antiviral activity against Marburgvirus Angola infected in African green monkey Vero cells to CC50 for African green monkey Vero cells; type: toxicity; details: read-out: Ratio CC50/EC50
West Nile virus = experiment: Antiviral activity against West Nile virus infected in African green monkey Vero 76 cells; type: functional, organism-based
[11] = system: Japanese encephalitis virus; experiment: Antiviral activity against Japanese encephalitis virus infected in African green monkey Vero 76 cells; type: functional, organism-based
Human adenovirus 5 = experiment: Antiviral activity against Human adenovirus 5 infected in human A549 cells; type: functional, organism-based
Human alphaherpesvirus 1 = experiment: Antiviral activity against HSV-1 infected in human HFF cells; type: functional, organism-based
Ebolavirus = experiment: Antiviral activity against Ebola virus infected in African green monkey Vero 76 cells; type: functional, organism-based
Measles morbillivirus [12] = experiment: Antiviral activity against Measles virus infected in African green monkey Vero 76 cells; type: functional, organism-based
BK polyomavirus = experiment: Antiviral activity against BK polyomavirus infected in human HFF cells; type: functional, organism-based; details: Betapolyomavirus hominis
[13] = Cytotoxicity against human HFF cells; type: cell-based
[14] = Selectivity index, ratio of EC50 for antiviral activity against BK polyomavirus infected in human HFF cells by visible analysis to CC50 for human HFF cells; type: toxicity, cell-based; details: read-out: Ratio CC50/EC50
Lassa virus = experiment: Antiviral activity against Lassa virus infected in African green monkey Vero cells; type: functional, organism-based; details: Mammarenavirus lassaense

Compound | selectivity ratio [1] | pEC50 (Measles morbillivirus [2]) | Activity (dengue virus type 2) | Activity (Pichinde virus) | CC50 [4] | Activity (Yellow fever virus) | CC50 [7] | Activity (Enterovirus A71) | Activity [8] | pEC50 (Norovirus) | pEC50 (Zaire ebolavirus) | Activity (Chikungunya virus) | Activity (Influenza A virus) | selectivity ratio [9] | Activity (Rift Valley fever virus) | Activity (Tacaribe virus) | pEC50 (Marburgvirus) | selectivity ratio [10] | Activity (West Nile virus) | further results
Nc1ccn([C@@H]2O[C@H](CO)[C@@H](O)[C@H]2F)c(=O)n1 | > 91 | 5.96 |  |  |  |  |  |  |  |  |  |  |  |  |  |  |  |  |  | 
Nc1ncc(Br)c2c1ncn2[C@@H]1C(F)=C[C@@H](O)[C@H]1O | 7.9 | 5.92 | inactive | inactive | ≥ 9.5 µM | inactive | > 100 µM | inactive | inactive | 5.19 | 6.96 | inactive | inactive | 381 | inactive | inactive | 7.00 | 420 | inactive | selectivity ratio [3]: 6.7; selectivity ratio ([5]; read-out: Ratio CC50/EC50): > 16; pEC50 (Measles morbillivirus [6]): 5.74; Activity (Punta Toro virus): inactive; Activity (Hepatitis B virus): inactive; Activity (Junin virus): inactive; Activity (Murine norovirus): inactive; Activity [11]: inactive; Activity (Human adenovirus 5): inactive
NC(=O)c1nc(F)cnc1O [FAVIPIRAVIR] |  |  |  |  | > 1000 µM |  |  |  |  |  | 4.18 |  |  | 15 |  |  | 3.81 | > 6.5 |  | 
C[C@@]1(O)[C@H](O)[C@@H](CO)O[C@H]1n1ccc(N)nc1=O |  |  |  |  |  |  | > 300 µM |  |  | 5.19 |  |  |  |  |  |  |  |  |  | selectivity ratio [5]: > 47
Nc1nccc2c1ncn2[C@@H]1C(F)=C[C@@H](O)[C@H]1O | 36 | 5.44 | inactive | inactive | ≥ 14 µM | inactive | > 100 µM | inactive | inactive | 5.57 | 6.92 | inactive | inactive | 117 | inactive | inactive | 6.28 | 27 | inactive | selectivity ratio [3]: 10; selectivity ratio ([5]; read-out: Ratio CC50/EC50): > 37; pEC50 (Measles morbillivirus [6]): 5.38; Activity (Punta Toro virus): inactive; Activity (Hepatitis B virus): inactive; Activity (Junin virus): inactive; Activity (Murine norovirus): inactive; Activity [11]: inactive; Activity (Human adenovirus 5): inactive
Nc1ncc(Br)c2c1ncn2[C@H]1C(F)=C[C@H](O)[C@@H]1O |  |  | inactive | inactive |  | inactive |  | inactive | inactive |  |  | inactive | inactive |  | inactive | inactive |  |  | inactive | Activity (Human alphaherpesvirus 1): inactive; Activity (Ebolavirus): inactive; Activity (Measles morbillivirus [12]): inactive; pEC50 (BK polyomavirus): 4.46; EC90 (BK polyomavirus): 145 µM; CC50 [13]: > 150 µM; selectivity ratio [14]: > 4; Activity (Lassa virus): inactive
Nc1nccc2c1ncn2[C@H]1C(F)=C[C@H](O)[C@@H]1O |  |  | inactive | inactive |  | inactive |  | inactive | inactive |  |  | inactive | inactive |  | inactive | inactive |  |  | inactive | Activity (Human alphaherpesvirus 1): inactive; Activity (Ebolavirus): inactive; Activity (Measles morbillivirus [12]): inactive; pEC50 (BK polyomavirus): 4.64; CC50 [13]: > 150 µM; selectivity ratio [14]: > 7; Activity (Lassa virus): inactive
